{"source": "patent US8106092B2", "about": "“Treatment of solid cancers” (priority 2004, dated 2012)", "key": {"B16-OVA tumors": {"tested_on": "B16-OVA tumors", "assay": "SIINFEKL-specific CD8+ T-cell induction after topical PEP005 treatment of B16-OVA (IFNγ ELISPOT)", "assay_type": "in vivo, C57/BL6 mice", "experimental": "(§1) B16 and B16 cells stably expressing ovalbumin (B16-OVA)were grown s.c. in C57BL/6 mice as described previously (Ogbourne et al, Cancer Res 64:2833-2839, 2004; Anraku et al, J Virol 76:3791-3799, 2002). Lung metastases were established as described (Zeh et al, J Immunol 162:989-994, 1999). Lewis lung-OVA (Nelson et al, J Immunol 166:5557-5566, 2001) were grown s.c. in C57BL/6 as described (Lenarczyk et al, Vaccine 22:963-974, 2004).\nTumors were treated by topical or intratumoral (i.t.) injection (using a 26 gauge needle) of (i) PEP0005 dissolved in acetone and then RPMI 1640 (final concentration of acetone 4%), or (ii) PEP005 formulated in PEG400.\nMouse splenocytes were analyzed by ex vivo IFNγ ELISPOT essentially as described previously (Le et al, Vaccine 19:4669-4675, 2001), but using MultiScreen-IP plates (Millipore) and 25 IU/ml of recombinant human IL-2 (Cetus).\nFollowing three topical applications of PEP005 to established s.c. B16-OVA tumors on C57/BL6 mice, the number of SIINFEKL [SEQ ID NO:2]-specific CD8^+ T-cell induced were measured using IFNγ ELISPOT. As controls, the SIINFEKL [SEQ ID NO:2] specific CM^+ T-cell induced following (i) PEP005 treatment without tumor, (ii) mock treatment of B16 tumors and (iii) naïve mice (no PEP005 or tumor), were also tested."}, "Lewis lung-OVA tumors [1]": {"tested_on": "Lewis lung-OVA tumors", "assay": "PEP005-mediated cure of primary Lewis lung-OVA tumors, challenge with secondary Lewis lung-OVA", "assay_type": "in vivo, C57BL/6 mice", "experimental": "FIGS. 4A to D are graphical representations showing protection against secondary tumors following cure of primary tumors with PEP005. (A) C57BL/6 mice received 5×10^5 Lewis lung-OVA s.c. on the back on day less 7 (d−7). When these primary tumors had reached an average 13.6 mm^2±1.8 SE (range 10-25 mm^2) on d0 they were treated once with 16 μg of PEP005 delivered i.t. In eight mice these primary tumors were cured, and these mice received 5×10^5 Lewis lung-OVA s.c. on d4 on the opposite flank from the primary tumors. The emergence of these secondary tumors was monitored over time (PEP005 cured). In a parallel group of animals (n=5) PEP005 treatment regressed the primary tumors, but after 11-13 days the primary tumors re-emerged. These animals also received secondary tumors as above and their emergence was again monitored over time (PEP005 regressed). Two control groups were included. One group (n=6) received no primary tumors, but was treated s.c. with PEP005 and received secondary tumors on the opposite flank (white triangles, PEP005 s.c.). The second control group (n=8) also received no primary tumors, was not treated with PEP005, and received secondary tumors as above (Controls). […] The experiment in (A) was repeated in Foxnl^nu mice; PEP005 cured (n=4), PEP005 regressed (n=7), Control (n=7). A PEP005 s.c. group was not included. (C) Treatment of primary Lewis lung-OVA with PEP005 induced SIINFEKL-specific CD8^+ T-cell responses using IFNγ ELISPOT when the secondary tumors had emerged or on d50. (D) Reduced growth of B16-OVA lung metastases following successful treatment of s.c. B16-OVA tumors with PEP005. C57BL/6 mice received 5×10^5 B16-OVA s.c. on the back on d−6. When these primary tumors had reached 10-20 mm^2 on d0, they were treated once with 18 μg of PEP005 delivered i.t., which cured the tumors in eight mice (PEP005 cured) and regressed the tumors in five mice (PEP005 regressed). Controls as above. Secondary B16-OVA (10^5) were injected i.v. on d6 and animals were sacrificed on d27 and lung metastases counted.\nas §1\nTumors were treated by topical or intratumoral (i.t.) injection (using a 26 gauge needle) of (i) PEP0005 dissolved in acetone and then RPMI 1640 (final concentration of acetone 4%), or (ii) PEP005 formulated in PEG400. […]"}, "Lewis lung-OVA tumors [2]": {"tested_on": "Lewis lung-OVA tumors", "assay": "Lewis lung-OVA primary cure and secondary challenge repeated in Foxnl^nu mice", "assay_type": "in vivo", "settings": "PEP005-mediated cure of primary tumors"}}, "data": [{"smiles": "C/C=C(/C)C(=O)O[C@H]1C(C)=C[C@]23C(=O)[C@@H](C=C(CO)[C@@H](O)[C@]12O)[C@H]1[C@@H](C[C@H]3C)C1(C)C", "note": "[PEP005, ingenol-3-angelate]", "values": [{"measurement": "tumor bearing animals cured", "setting": "B16-OVA tumors; B16-OVA tumors treated topically with PEP005", "value": "4/7"}, {"measurement": "SIINFEKL-specific CD8+ T-cell responses (IFNγ ELISPOT)", "setting": "B16-OVA tumors; mice receiving PEP005 without tumor, limit of detection five spots/10^6 splenocytes", "value": "no significant responses"}, {"measurement": "SIINFEKL-specific CD8+ T-cell responses (IFNγ ELISPOT)", "setting": "B16-OVA tumors; mice with B16-OVA tumors treated with three topical applications of PEP005 (cured mice, n=4), p=0.058 vs combined negative controls", "value": "some weak variable responses"}, {"measurement": "growth of secondary tumors", "setting": "Lewis lung-OVA tumors [1]; PEP005 regressed but failed to cure the primary tumors (n=5), not significant", "value": "slightly delayed"}, {"measurement": "growth of secondary tumors", "setting": "Lewis lung-OVA tumors [1]; no primary tumors, PEP005 s.c. at a site distant from the secondary tumors", "value": "failed to reduce the growth of the secondary tumors"}, {"measurement": "animals in which secondary tumors failed to appear", "setting": "Lewis lung-OVA tumors [1]; primary tumor cured by i.t. PEP005 (n=8), secondary inoculated d4 on opposite flank", "value": 50, "unit": "%"}, {"measurement": "emergence of secondary tumors", "setting": "Lewis lung-OVA tumors [1]; primary tumor cured by i.t. PEP005 (n=8), log rank p=0.002", "value": "significantly delayed"}, {"measurement": "protection against secondary challenge", "setting": "Lewis lung-OVA tumors [2]", "value": "no protective effect"}]}]}
